Assay results as given in patent US10660934B2, “Neuroprotective peptide” (SENJU PHARMACEUTICAL CO., LTD., priority 2016, dated 2020).
Where no end group is shown, it is not given here.

Assays:
[1] = Stability in a vitreous humor solution; assay type: in vitro ADME, rabbit
Protocol: (Two) rabbits were euthanized by intravenous administration of 5 ml of a pentobarbital sodium solution, and then their eyeballs were removed. An incision was made in the equatorial region of each eyeball and the vitreous humor-solution was harvested from each eyeball using a syringe (18G injection needle) at the site of incision. The mixed vitreous humor solution was filtered with a cell strainer (40 μm) and the filtrate was used as the vitreous humor solution for the stability tests. 600 μl of the vitreous humor solution was mixed with 1.2 μl of a Primocin at a concentration of 50 mg/ml and the resultant solution was used as sample solution. 270 μl of the sample solution and […] in a 30 μl aqueous solution were mixed and the resultant mixture was used as the test sample. The test sample was incubated at 37° C. […] The analysis samples were stored frozen at −20° C. until it was time to take readings using them. […] Then, the concentration of Peptide 1 in each sample was analyzed using liquid chromatography. The concentrations were calculated from the area values obtained using the external standard method. […]
The residual rate was calculated using the following formula: Residual rate=(the concentration of peptide after 7 days' incubation/the concentration of peptide in the test samples immediately after they were prepared)×100 [Formula 1]

[2] = tested on: rat retinal ganglion cells (RGC); assay: Hypoxia-induced cell death assay in rat retinal ganglion cells (Calcein-AM/Ethidium homodimer); assay type: cell-based; conditions: for Rate of cell-death suppression (%): 24 hours hypoxia
Protocol: Retinal ganglion cells were isolated by a magnetic activated cell sorting method (MACS). Retinas were harvested from neonatal rats (Slc: Sprague-Dawley, 7-day old) and the tissue was dissociated using a Neural Tissue Dissociation Kit (Miltenyi Biotec, 130-094-802). Then, using a Retinal Ganglion Cell Isolation Kit (Miltenyi Biotec, 130-096-209), the endothelial cells and microglia were removed, and a positive selection for CD90.1^+ RGC was carried out by means of CD90.1MicroBeads. The test was carried out with the approval of the Animal Test Ethics Committee based on the Act on Welfare and Management of Animals (Act number 105 of Oct. 1, 1973, last revision: Act number 38 of Jun. 12, 2013), etc. 2. Cell Culture
After suspending the isolated RGC in a neurobasal medium (Gibco Corporation, 12348-017) containing a B27 supplement (Invitrogen, 0080085-SA), 1 mM of L-glutamine (Gibco, 25030), 50 ng/ml of BDNF (Peprotech, 25-02), 50 ng/ml of CNTF (Peprotech, 450-50) and 5 μm of Forskolin. (Sigma, F6886), they were seeded on a 96-well plate (Corning, 354596), ‘which’ was coated with poly-D-lysine/laminin, at a density of 5×10^3 cells/100 μl/well, and incubated at 37° C. and 5% CO2 for three days.
After having replaced the media with neurobasal media comprising a B27 supplement, 1 mM of L-glutamine […] and each peptide, a hypoxia state (O2 concentration of 0.1% or less) was induced by putting the plate in an Anaero Pack rectangular jar with Anaero Pack Kenki 5% (Mitsubishi Gas Chemical Company, Inc., A-07) with hermetically sealing, and incubating at 37° C. After incubating for 24 hours under hypoxia condition, Calcein-AM and Ethidium homodimer (Invitrogen, L3224) were added to the media. As a result of staining the cells, it was possible to distinguish between the viable cells and the dead cells. The number of viable cells and dead cells were measured using an Image Pro plus, and the rate of viability was given as “the proportion of the viable cell count relative to the total cell count.” 4. Test Results
The isolation and incubation of RGC were performed by the same methods as for Test Example 3-1, and 2.
Commercially available PRP4 (Abnova, H0011272-Q01) having the sequence of SEQ ID NO: 2, was used for Peptide 5. The evaluation of Peptide 5 was carried out by the same evaluation method as used for Test Example 3-3.

SH-SY5Y cells = assay: Hypoxia-induced cell death assay in human neuroblastoma SH-SY5Y cells (LDH); assay type: cell-based; conditions: 100 nM, 24 hours hypoxia (O2 0.1% or less), glucose-free DMEM, mean ± standard error (n = 3)
Protocol: SH-SY5Y cells (ATCC) were sustainably cultured in a DMEM/F12 medium (Invitrogen, 11330-032) supplemented with a 10% serum (Invitrogen, 10062-147) under the condition of 37° C. and 5% CO2.
The cells were seeded on a 96-well plate (Iwaki, 3860-096) at a density of 2×10^4 cells/100 μl/well. The following day the medium was replaced with a DMEM/F12 medium comprising a 1% serum and 10 μM of a retinoic acid (Wako, 302-79-4) and differentiated by incubation for 2 days. After replacing the medium with a glucose-free DMEM medium supplemented with 100 nM of Peptide 1, a hypoxia state (O2 concentration of 0.1% or less) was induced by putting the plate in an Anaero Pack rectangular jar with Anaero Pack Kenki 5% (Mitsubishi Gas Chemical Company, Inc., A-07) with hermetically sealing, and culturing at 37° C. Alter culturing for 24 hours in the hypoxia state, the cell-death inhibiting rate by the peptide was calculated by measuring the amount of LDH in the cells and the medium, using an LDH cytotoxicity detection kit (Takara, MK401). Moreover, 100 nM of an IGF-1 was used as a positive control in the experiment IGF-1 has a protective effect against nerve cell death (Mol. Cell Neurosci, 2011, 47 (3), 181-190). 3. Test Results

[3] = 100 nM, mean ± standard error (n = 14-19)

HPPPPPFQNQQRPP [Peptide 1, HPPPPPFQNQQRPP]
stability in a vitreous humor solution (in words) ([1]; 7 days at 37° C.): stable in a vitreous humor solution | remaining at 168 h ([1]; vitreous humor solution (filtered, from rabbit eyeballs), after 7 days' incubation at 37° C. in rabbit vitreous humor solution, read-out: Residual ratio (%)): 98.4%

QQRPP (Peptide of PRP4) [Peptide 4]
Rate of cell-death suppression (%) [2, 3]: 31.1 ± 7.8 %

HPPPPPFQNQQ (peptide of PRP4) [Peptide 2]
Rate of cell-death suppression (%) [2, 3]: 26.4 ± 4.8 %

IGF-1
Cell lethality (%) (SH-SY5Y cells): 88.1 ± 8.3 %

HPPPPPFQ (peptide of PRP4) [Peptide 3]
Rate of cell-death suppression (%) [2, 3]: 27.2 ± 6.6 %

B1: Peptide 5: Commercially available PRP4 (Abnova, H0011272-Q01) having the sequence of SEQ ID NO: 2 (protein)
chain: QSTDNDVNYEDFTFTIPDVEDSSQRPDQGPQRPPPEGLLPRPPGDSGNQDDGPQQRPPKPGGHHRHPPPPPFQNQQRPPQRGHRQLSLPRFPSVSLQEAS
modifications: commercial recombinant protein, possible tag; Peptide of PRP4
Rate of cell-death suppression (%) ([2]; 10 nM, mean ± standard error (n = 12 to 18)): 66.2 ± 14.4 % | suppression of cell death from hypoxia (in words) ([2]; rat RGC, Test Example 4, 10 nM): significantly suppressed the cell death from hypoxia
